Entries after “also recorded” stand apart in the source; their conditions may differ.
Legend:
[1] = Body weight and tolerance in A375 model animals; format: in vivo; details: 12.5, 25 and 50 mg/kg PO BID, to the 21st day
Experimental: • 3) Daily observation of assay animals: The development of this assay protocol and any modifications were evaluated and approved by the Institutional Animal Care and Use Committee (IACUC). The use and welfare of assay animals were carried out in accordance with the regulations of the Association for Assessment and Accreditation of Laboratory Animal Care (AAALAC). Animals were monitored daily for health and death. […] Animal deaths and side effects in each group were recorded based on the number of animals in each group. • 4) Formulation of assay compound • a) Vehicle group: 5% DMSO+95% (20% HP-β-CD). • b) Assay compound group: A quantitative amount of the assay compound was weighed in a formulation bottle. […] A corresponding volume of 20% HP-β-CD was added and then the mixture was vortexed to obtain a homogeneous suspension. • 5) Tumor measurement and assay indicator: • a) Tumor diameter was measured twice a week with a vernier caliper. The calculation formula of tumor volume was: TV=1/2×a×b^2, wherein a and b represent the long and short diameters of tumor, respectively: • b) The tumor-inhibitory efficacy of the compound was evaluated by TGI (%). […]

[2] = system: rat plasma albumin; experiment: Plasma protein binding (ultracentrifugation), rat; format: in vitro ADME; further: tested at 0.2 µM
Experimental: The binding degree of the assay compound to human/mouse/rat/canine/monkey plasma albumin was studied.
• 1) Matrix preparation: on the day of the assay, plasma was thawed in cold water and centrifuged at 3220 rpm for 5 min to remove all clots. The pH of the resulting plasma was measured and adjusted to 7.4±0.1 using 1% phosphoric acid or IN sodium hydroxide as needed. • 2) Dilution procedure for the assay compound: the assay compound was dissolved in dimethyl sulfoxide (DMSO) to prepare stock solutions with concentrations of 10 mM and 2 mM, respectively. A 40 μM working solution was prepared by diluting 2 μL of stock solution (2 mM) with 98 μL of DMSO. A 400 μM working solution of the control compound was prepared by diluting 10 μL of stock solution with 240 μL of DMSO. The working solution of the compound (5 μL) was mixed well with a blank matrix (995 μL) at a ratio of 1:200 to prepare a loading matrix.
• a) An equal volume of 30 μL of loading matrix (n=2) was transferred to a sample collection plate to prepare a time 0 (TO) sample for residue determination. The sample was immediately matched with the corresponding blank buffer to a final volume of 60 μL, and the volume ratio of plasma to buffer in each well was 1:1. […] The mixture was centrifuged at 4000 rpm for 20 min and 100 μL of supernatant from each sample was analyzed by LC-MS/MS.

SMILES: Cc1cccc(CN2C(=O)c3nc(-c4nc(Nc5ccnn5C)ncc4C)sc3C23COC3)n1 [WX001]
- body weight of animals [1]: did not decrease significantly; also recorded: not observed to decrease significantly
- tolerance [1]: good
- Plasma protein binding rate (unbound %) [2]: 8.4%
